# ChEMBL document CHEMBL3885881, “DrugMatrix”
# Organism: Rattus norvegicus
# Assay: DrugMatrix - Regimen: Daily Repeat
# Assay type: toxicity, organism-based, Sprague-Dawley
# Set-up: regimen Daily Repeat, gender Male, age 6-8 weeks
# Conditions: in vivo, po, route oral GAVAGE, […]; for BASOPHIL / EOSINOPHIL / ERYTHROCYTE COUNT / HEMATOCRIT / HEMOGLOBIN / LEUKOCYTE COUNT / LYMPHOCYTE / MEAN CORPUSCULAR HEMOGLOBIN / MEAN CORPUSCULAR HEMOGLOBIN CONCENTRATION / MEAN CORPUSCULAR VOLUME / MONOCYTE / NEUTROPHIL / PLATELET COUNT: tissue Blood; for ALANINE AMINOTRANSFERASE / ALBUMIN / ALKALINE PHOSPHATASE / ASPARTATE AMINOTRANSFERASE / BLOOD UREA NITROGEN / CARBON DIOXIDE / CHLORIDE / CHOLESTEROL / CREATINE PHOSPHOKINASE / CREATININE / GLUCOSE / LACTATE DEHYDROGENASE / LIPASE / PHOSPHORUS / POTASSIUM / SODIUM / TOTAL BILIRUBIN / TOTAL PROTEIN / URIC ACID: tissue Plasma
# [1] = 100 mg/kg, 72 h, dose level Low, time 3 day
# [2] = 100 mg/kg, 120 h, dose level Low, time 5 day
# [3] = 1200 mg/kg, 72 h, dose level High, time 3 day
# [4] = 1200 mg/kg, 120 h, dose level High, time 5 day
smiles,measurement,setting,value
Cc1c(C)c2c(c(C)c1O)CCC(C)(COc1ccc(CC3SC(=O)NC3=O)cc1)O2 (stereo not drawn) [TROGLITAZONE],BASOPHIL,[1],0%
same,EOSINOPHIL,[1],1%
same,ERYTHROCYTE COUNT,[1],6.97 x10E6/uL
same,HEMATOCRIT,[1],42.83%
same,HEMOGLOBIN,[1],14.33 G/DL
same,LEUKOCYTE COUNT,[1],7.7 x10E3/uL
same,LYMPHOCYTE,[1],77.67%
same,MEAN CORPUSCULAR HEMOGLOBIN,[1],20.57 pg
same,MEAN CORPUSCULAR HEMOGLOBIN CONCENTRATION,[1],33.5 G/DL
same,MEAN CORPUSCULAR VOLUME,[1],61.4 fL
same,MONOCYTE,[1],3%
same,NEUTROPHIL,[1],18.33%
same,PLATELET COUNT,[1],1143 x10E3/uL
same,ALANINE AMINOTRANSFERASE,[1],57.67 u/L
same,ALBUMIN,[1],4.33 G/DL
same,ALKALINE PHOSPHATASE,[1],396.67 u/L
same,ASPARTATE AMINOTRANSFERASE,[1],112.67 u/L
same,BLOOD UREA NITROGEN,[1],14.67 mg/dL
same,CARBON DIOXIDE,[1],24.67 mmol/L
same,CHLORIDE,[1],103.33 MEQ/L
same,CHOLESTEROL,[1],74.67 mg/dL
same,CREATINE PHOSPHOKINASE,[1],585.67 u/L
same,CREATININE,[1],0.3 mg/dL
same,GLUCOSE,[1],141 mg/dL
same,LACTATE DEHYDROGENASE,[1],938.33 u/L
same,LIPASE,[1],10 u/L
same,PHOSPHORUS,[1],8.83 mg/dL
same,POTASSIUM,[1],5.6 MEQ/L
same,SODIUM,[1],144.33 MEQ/L
same,TOTAL BILIRUBIN,[1],0.1 mg/dL
same,TOTAL PROTEIN,[1],5.83 G/DL
same,URIC ACID,[1],1.2 mg/dL
same,BASOPHIL,[2],0.33%
same,EOSINOPHIL,[2],0.67%
same,ERYTHROCYTE COUNT,[2],7.13 x10E6/uL
same,HEMATOCRIT,[2],43.8%
same,HEMOGLOBIN,[2],14.4 G/DL
same,LEUKOCYTE COUNT,[2],13.53 x10E3/uL
same,LYMPHOCYTE,[2],82.33%
same,MEAN CORPUSCULAR HEMOGLOBIN,[2],20.2 pg
same,MEAN CORPUSCULAR HEMOGLOBIN CONCENTRATION,[2],32.87 G/DL
same,MEAN CORPUSCULAR VOLUME,[2],61.5 fL
same,MONOCYTE,[2],1.67%
same,NEUTROPHIL,[2],15.67%
same,PLATELET COUNT,[2],873.33 x10E3/uL
same,ALANINE AMINOTRANSFERASE,[2],66.67 u/L
same,ALBUMIN,[2],4.27 G/DL
same,ALKALINE PHOSPHATASE,[2],446.67 u/L
same,ASPARTATE AMINOTRANSFERASE,[2],84.33 u/L
same,BLOOD UREA NITROGEN,[2],15 mg/dL
same,CARBON DIOXIDE,[2],23.67 mmol/L
same,CHLORIDE,[2],99.67 MEQ/L
same,CHOLESTEROL,[2],63.67 mg/dL
same,CREATINE PHOSPHOKINASE,[2],419.67 u/L
same,CREATININE,[2],0.3 mg/dL
same,GLUCOSE,[2],149 mg/dL
same,LACTATE DEHYDROGENASE,[2],313.33 u/L
same,LIPASE,[2],9.33 u/L
same,PHOSPHORUS,[2],9.73 mg/dL
same,POTASSIUM,[2],5.57 MEQ/L
same,SODIUM,[2],139.67 MEQ/L
same,TOTAL BILIRUBIN,[2],0.0667 mg/dL
same,TOTAL PROTEIN,[2],5.8 G/DL
same,URIC ACID,[2],0.87 mg/dL
same,BASOPHIL,[3],0%
same,EOSINOPHIL,[3],1%
same,ERYTHROCYTE COUNT,[3],7.21 x10E6/uL
same,HEMATOCRIT,[3],43.6%
same,HEMOGLOBIN,[3],14.63 G/DL
same,LEUKOCYTE COUNT,[3],6.47 x10E3/uL
same,LYMPHOCYTE,[3],79.33%
same,MEAN CORPUSCULAR HEMOGLOBIN,[3],20.33 pg
same,MEAN CORPUSCULAR HEMOGLOBIN CONCENTRATION,[3],33.6 G/DL
same,MEAN CORPUSCULAR VOLUME,[3],60.5 fL
same,MONOCYTE,[3],2.67%
same,NEUTROPHIL,[3],16.67%
same,PLATELET COUNT,[3],1107 x10E3/uL
same,ALANINE AMINOTRANSFERASE,[3],85.33 u/L
same,ALBUMIN,[3],4.53 G/DL
same,ALKALINE PHOSPHATASE,[3],481.33 u/L
same,ASPARTATE AMINOTRANSFERASE,[3],92.33 u/L
same,BLOOD UREA NITROGEN,[3],14.67 mg/dL
same,CARBON DIOXIDE,[3],23 mmol/L
same,CHLORIDE,[3],104 MEQ/L
same,CHOLESTEROL,[3],65.33 mg/dL
same,CREATINE PHOSPHOKINASE,[3],471 u/L
same,CREATININE,[3],0.3 mg/dL
same,GLUCOSE,[3],140.33 mg/dL
same,LACTATE DEHYDROGENASE,[3],332.33 u/L
same,LIPASE,[3],9.33 u/L
same,PHOSPHORUS,[3],8.43 mg/dL
same,POTASSIUM,[3],5.33 MEQ/L
same,SODIUM,[3],146 MEQ/L
same,TOTAL BILIRUBIN,[3],0.1 mg/dL
same,TOTAL PROTEIN,[3],6 G/DL
same,URIC ACID,[3],0.97 mg/dL
same,BASOPHIL,[4],0%
same,EOSINOPHIL,[4],1%
same,ERYTHROCYTE COUNT,[4],6.94 x10E6/uL
same,HEMATOCRIT,[4],42.1%
same,HEMOGLOBIN,[4],13.63 G/DL
same,LEUKOCYTE COUNT,[4],9.2 x10E3/uL
same,LYMPHOCYTE,[4],81%
same,MEAN CORPUSCULAR HEMOGLOBIN,[4],19.63 pg
same,MEAN CORPUSCULAR HEMOGLOBIN CONCENTRATION,[4],32.4 G/DL
same,MEAN CORPUSCULAR VOLUME,[4],60.63 fL
same,MONOCYTE,[4],2.33%
same,NEUTROPHIL,[4],16%
same,PLATELET COUNT,[4],801.33 x10E3/uL
same,ALANINE AMINOTRANSFERASE,[4],58 u/L
same,ALBUMIN,[4],4.3 G/DL
same,ALKALINE PHOSPHATASE,[4],406.67 u/L
same,ASPARTATE AMINOTRANSFERASE,[4],77.33 u/L
same,BLOOD UREA NITROGEN,[4],16 mg/dL
same,CARBON DIOXIDE,[4],25 mmol/L
same,CHLORIDE,[4],99.33 MEQ/L
same,CHOLESTEROL,[4],64.33 mg/dL
same,CREATINE PHOSPHOKINASE,[4],451.67 u/L
same,CREATININE,[4],0.3 mg/dL
same,GLUCOSE,[4],149 mg/dL
same,LACTATE DEHYDROGENASE,[4],118.67 u/L
same,LIPASE,[4],8.67 u/L
same,PHOSPHORUS,[4],9.07 mg/dL
same,POTASSIUM,[4],5.67 MEQ/L
same,SODIUM,[4],138 MEQ/L
same,TOTAL BILIRUBIN,[4],0.1 mg/dL
same,TOTAL PROTEIN,[4],5.77 G/DL
same,URIC ACID,[4],1.1 mg/dL
